Source: ChEMBL document CHEMBL5465560, “Selectivity Literature for EUbOPEN Chemogenomic Library” (2024)
Each block holds one compound with its values, some of them ahead of it.

Key:
[1] = biological target: Serine/threonine-protein kinase PRP4 homolog (Homo sapiens) (UniProt Q13523); conditions: at 10 µM
[2] = biological target: Serine/threonine-protein kinase B-raf (Homo sapiens) (UniProt P15056); test: Selectivity interaction (Kinase panel (Invitrogen)) EUB0000639a BRAF; conditions: at 200 nM
[3] = biological target: Cyclin-dependent kinase 17 (Homo sapiens) (UniProt Q00537); test: Selectivity interaction (ActivX KiNativ screen (kinase selectivity in THP-1 cell lysates)) EUB0000639a CDK17; type: subcellular; conditions: lysate, at 0.04 µM
[4] = biological target: T1, Peregrin (Homo sapiens) (UniProt P55201); test: Selectivity interaction (PWWP, WD40, and Tudor domain panel (DSLS measurements, literature)) EUB0000270b BRPF1
T1 sequence (whole entry): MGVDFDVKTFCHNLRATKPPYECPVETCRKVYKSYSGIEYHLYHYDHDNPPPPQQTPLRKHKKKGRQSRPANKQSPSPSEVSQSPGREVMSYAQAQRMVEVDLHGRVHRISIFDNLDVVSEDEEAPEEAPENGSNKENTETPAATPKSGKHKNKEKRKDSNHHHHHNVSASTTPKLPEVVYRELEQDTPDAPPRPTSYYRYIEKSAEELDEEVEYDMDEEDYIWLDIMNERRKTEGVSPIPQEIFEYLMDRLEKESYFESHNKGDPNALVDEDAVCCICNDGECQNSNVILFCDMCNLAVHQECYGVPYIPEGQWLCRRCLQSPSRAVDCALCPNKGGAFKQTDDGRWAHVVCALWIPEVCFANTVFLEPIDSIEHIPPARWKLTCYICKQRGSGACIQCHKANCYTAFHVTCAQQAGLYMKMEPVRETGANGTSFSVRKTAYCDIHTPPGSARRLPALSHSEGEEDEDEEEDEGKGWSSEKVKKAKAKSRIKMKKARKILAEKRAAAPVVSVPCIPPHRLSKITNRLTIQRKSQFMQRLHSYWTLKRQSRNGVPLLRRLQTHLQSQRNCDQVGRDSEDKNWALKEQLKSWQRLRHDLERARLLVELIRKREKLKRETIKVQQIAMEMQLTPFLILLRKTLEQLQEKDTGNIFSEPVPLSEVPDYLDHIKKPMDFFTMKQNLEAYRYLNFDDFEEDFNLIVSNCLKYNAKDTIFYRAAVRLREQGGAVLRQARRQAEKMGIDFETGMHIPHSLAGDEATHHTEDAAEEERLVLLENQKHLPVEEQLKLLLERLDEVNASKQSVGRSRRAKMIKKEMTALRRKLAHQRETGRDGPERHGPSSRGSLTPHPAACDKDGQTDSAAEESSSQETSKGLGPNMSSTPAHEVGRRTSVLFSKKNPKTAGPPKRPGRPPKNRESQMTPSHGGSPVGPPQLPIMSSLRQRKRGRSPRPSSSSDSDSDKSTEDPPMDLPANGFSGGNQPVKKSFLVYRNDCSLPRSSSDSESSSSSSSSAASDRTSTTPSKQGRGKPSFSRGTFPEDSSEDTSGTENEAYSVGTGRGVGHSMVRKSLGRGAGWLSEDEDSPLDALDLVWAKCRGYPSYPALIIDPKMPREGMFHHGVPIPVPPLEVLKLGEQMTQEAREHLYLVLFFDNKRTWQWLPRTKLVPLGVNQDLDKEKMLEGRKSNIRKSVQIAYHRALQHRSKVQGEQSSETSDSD

[5] = biological target: T2, Tyrosine-protein kinase Mer (Homo sapiens) (UniProt Q12866); test: Selectivity interaction (ProQinase) EUB0000171b MERTK
T2 sequence (whole entry): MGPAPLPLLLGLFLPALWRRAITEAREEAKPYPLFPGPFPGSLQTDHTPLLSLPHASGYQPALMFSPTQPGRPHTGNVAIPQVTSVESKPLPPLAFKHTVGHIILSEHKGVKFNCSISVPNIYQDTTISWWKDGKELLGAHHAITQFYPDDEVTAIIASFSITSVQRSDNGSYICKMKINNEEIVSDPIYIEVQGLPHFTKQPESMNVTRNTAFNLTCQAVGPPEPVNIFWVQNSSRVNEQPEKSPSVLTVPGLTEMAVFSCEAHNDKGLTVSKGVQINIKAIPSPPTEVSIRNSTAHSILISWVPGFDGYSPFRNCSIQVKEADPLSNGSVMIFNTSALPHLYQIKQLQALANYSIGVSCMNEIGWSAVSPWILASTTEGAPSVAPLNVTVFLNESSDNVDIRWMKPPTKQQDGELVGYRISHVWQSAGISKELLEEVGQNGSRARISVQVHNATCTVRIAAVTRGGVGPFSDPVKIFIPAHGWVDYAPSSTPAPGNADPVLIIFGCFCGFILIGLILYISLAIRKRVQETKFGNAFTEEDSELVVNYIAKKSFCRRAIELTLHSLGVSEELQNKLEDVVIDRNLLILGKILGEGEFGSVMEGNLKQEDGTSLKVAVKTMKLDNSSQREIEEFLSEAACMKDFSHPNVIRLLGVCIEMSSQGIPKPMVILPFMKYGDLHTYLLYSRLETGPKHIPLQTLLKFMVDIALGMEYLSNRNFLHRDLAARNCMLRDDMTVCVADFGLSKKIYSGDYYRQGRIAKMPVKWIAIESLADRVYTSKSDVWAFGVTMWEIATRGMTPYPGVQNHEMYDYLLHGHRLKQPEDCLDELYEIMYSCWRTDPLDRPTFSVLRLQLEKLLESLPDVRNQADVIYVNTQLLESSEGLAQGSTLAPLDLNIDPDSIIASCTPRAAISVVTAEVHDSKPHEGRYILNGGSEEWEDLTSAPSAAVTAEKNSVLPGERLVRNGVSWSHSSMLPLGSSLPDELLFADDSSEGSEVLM

[6] = biological target: Macrophage colony-stimulating factor 1 receptor (Homo sapiens) (UniProt P07333); test: Selectivity interaction (KinomeScan (DiscoverX)) EUB0001049a CSF1R; conditions: at 1 µM
[7] = biological target: RAF proto-oncogene serine/threonine-protein kinase (Homo sapiens) (UniProt P04049); test: Selectivity interaction (KinomeScan (DiscoverX)) EUB0001049a RAF1; conditions: at 1 µM
[8] = biological target: Ribosomal protein S6 kinase alpha-6 (Homo sapiens, UniProt Q9UK32); test: Selectivity interaction (KinomeScan (DiscoverX)) EUB0000695a RPS6KA6; conditions: at 100 nM
Ribosomal protein S6 kinase alpha-6, sequence (Q9UK32 whole entry): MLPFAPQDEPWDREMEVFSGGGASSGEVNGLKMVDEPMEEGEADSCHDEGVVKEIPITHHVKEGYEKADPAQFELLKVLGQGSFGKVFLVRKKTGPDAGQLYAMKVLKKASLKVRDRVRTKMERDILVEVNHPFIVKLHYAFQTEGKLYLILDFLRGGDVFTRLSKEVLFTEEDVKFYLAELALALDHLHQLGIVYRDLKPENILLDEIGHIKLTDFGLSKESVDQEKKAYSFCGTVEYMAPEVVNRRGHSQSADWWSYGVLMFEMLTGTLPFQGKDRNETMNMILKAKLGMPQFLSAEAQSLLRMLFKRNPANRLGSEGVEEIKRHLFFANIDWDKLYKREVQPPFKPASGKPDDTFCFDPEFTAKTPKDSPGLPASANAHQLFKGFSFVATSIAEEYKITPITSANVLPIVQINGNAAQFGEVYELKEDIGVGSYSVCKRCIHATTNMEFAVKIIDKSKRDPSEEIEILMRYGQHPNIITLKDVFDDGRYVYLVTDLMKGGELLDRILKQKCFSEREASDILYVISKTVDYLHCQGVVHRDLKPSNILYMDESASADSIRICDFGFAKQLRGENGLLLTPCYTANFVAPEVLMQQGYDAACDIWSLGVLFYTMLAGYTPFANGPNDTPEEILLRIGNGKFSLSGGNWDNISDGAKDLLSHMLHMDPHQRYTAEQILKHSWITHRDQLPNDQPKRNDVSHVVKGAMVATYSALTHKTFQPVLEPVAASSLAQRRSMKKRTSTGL

Macrophage colony-stimulating factor 1 receptor (Homo sapiens), sequence (P07333 whole entry): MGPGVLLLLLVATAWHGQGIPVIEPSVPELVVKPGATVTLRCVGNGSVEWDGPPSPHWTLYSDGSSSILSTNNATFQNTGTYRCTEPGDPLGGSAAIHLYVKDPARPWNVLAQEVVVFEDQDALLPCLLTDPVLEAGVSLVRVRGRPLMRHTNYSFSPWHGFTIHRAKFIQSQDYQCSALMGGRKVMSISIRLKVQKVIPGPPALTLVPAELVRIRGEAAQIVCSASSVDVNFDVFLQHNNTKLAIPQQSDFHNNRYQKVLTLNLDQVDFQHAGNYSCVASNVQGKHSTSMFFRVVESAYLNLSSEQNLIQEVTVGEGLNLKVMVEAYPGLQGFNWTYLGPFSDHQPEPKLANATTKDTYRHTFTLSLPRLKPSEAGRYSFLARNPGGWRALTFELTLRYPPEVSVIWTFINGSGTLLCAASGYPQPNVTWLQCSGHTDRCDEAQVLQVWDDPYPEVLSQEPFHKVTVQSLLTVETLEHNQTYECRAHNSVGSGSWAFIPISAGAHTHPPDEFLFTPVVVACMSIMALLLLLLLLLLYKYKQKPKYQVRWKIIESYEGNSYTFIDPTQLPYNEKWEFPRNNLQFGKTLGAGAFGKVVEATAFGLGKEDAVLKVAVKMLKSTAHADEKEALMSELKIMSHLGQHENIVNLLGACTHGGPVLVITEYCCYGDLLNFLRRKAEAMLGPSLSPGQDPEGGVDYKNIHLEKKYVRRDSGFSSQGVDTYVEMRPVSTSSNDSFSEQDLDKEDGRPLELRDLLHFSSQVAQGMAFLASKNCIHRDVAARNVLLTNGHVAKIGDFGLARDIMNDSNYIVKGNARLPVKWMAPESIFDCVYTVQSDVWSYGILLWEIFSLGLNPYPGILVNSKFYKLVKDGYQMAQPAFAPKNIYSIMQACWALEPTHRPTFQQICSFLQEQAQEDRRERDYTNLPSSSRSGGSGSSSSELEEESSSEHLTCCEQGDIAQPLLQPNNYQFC
Cyclin-dependent kinase 17 (Homo sapiens), sequence (Q00537 whole entry, looked up, the tested form may be a part): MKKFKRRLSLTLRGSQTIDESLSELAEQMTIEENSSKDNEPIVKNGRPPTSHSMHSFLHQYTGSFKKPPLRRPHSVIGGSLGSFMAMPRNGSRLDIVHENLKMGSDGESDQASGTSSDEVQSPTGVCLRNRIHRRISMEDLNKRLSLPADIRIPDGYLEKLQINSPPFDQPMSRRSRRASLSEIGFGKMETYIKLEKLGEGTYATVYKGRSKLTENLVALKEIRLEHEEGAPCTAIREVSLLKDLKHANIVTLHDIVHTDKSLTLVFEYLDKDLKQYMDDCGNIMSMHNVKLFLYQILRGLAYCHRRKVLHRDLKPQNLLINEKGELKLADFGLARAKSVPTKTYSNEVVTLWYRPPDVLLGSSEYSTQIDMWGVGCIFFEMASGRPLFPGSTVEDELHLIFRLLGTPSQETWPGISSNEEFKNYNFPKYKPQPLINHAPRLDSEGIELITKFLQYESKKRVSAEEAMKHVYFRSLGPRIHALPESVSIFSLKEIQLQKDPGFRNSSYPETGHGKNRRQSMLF
Serine/threonine-protein kinase PRP4 homolog (Homo sapiens), sequence (Q13523 whole entry): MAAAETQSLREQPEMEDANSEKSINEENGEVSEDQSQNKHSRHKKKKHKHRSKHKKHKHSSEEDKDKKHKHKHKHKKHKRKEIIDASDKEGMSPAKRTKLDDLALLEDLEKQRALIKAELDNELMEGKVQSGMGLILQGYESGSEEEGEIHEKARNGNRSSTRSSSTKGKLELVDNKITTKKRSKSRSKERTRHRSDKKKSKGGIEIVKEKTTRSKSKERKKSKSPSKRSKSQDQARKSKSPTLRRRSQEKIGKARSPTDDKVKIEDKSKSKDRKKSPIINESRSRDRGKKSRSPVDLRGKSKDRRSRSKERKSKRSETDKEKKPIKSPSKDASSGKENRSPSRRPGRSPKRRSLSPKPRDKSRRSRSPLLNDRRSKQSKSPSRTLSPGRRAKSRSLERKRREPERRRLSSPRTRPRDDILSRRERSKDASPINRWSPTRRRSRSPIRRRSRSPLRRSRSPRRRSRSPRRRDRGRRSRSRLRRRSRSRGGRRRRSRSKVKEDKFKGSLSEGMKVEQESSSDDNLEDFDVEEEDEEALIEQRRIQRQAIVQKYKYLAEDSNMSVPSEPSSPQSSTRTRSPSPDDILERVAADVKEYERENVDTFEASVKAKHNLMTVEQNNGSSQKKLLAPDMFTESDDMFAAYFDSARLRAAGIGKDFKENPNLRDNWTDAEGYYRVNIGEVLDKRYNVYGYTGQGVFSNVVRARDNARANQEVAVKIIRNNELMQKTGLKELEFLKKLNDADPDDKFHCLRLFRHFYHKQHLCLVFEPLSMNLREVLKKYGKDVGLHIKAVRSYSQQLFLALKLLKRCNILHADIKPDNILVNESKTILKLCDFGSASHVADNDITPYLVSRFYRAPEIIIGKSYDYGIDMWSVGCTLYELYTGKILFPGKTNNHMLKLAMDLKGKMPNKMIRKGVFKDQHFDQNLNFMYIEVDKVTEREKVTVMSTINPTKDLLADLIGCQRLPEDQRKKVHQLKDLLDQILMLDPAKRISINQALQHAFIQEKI
Serine/threonine-protein kinase B-raf (Homo sapiens), sequence (P15056 whole entry): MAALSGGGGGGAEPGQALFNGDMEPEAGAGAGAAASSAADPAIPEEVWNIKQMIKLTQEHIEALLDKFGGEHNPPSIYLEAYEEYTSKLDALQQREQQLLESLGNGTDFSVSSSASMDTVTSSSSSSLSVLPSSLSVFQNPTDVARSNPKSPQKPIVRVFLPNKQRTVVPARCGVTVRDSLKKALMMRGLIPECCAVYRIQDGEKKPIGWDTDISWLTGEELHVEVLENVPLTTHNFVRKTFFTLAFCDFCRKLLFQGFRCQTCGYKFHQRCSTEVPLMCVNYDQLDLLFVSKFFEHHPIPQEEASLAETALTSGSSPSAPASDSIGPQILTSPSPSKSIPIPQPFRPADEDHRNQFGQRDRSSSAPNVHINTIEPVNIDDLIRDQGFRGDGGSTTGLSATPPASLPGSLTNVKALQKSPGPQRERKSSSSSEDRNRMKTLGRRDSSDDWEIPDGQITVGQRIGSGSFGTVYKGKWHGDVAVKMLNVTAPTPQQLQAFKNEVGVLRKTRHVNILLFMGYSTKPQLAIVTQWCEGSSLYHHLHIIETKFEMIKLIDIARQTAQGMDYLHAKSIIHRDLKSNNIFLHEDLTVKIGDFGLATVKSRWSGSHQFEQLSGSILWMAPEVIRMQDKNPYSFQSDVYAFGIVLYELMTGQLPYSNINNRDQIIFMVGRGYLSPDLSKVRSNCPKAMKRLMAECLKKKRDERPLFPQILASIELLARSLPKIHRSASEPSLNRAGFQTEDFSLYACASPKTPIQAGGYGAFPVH
RAF proto-oncogene serine/threonine-protein kinase (Homo sapiens), sequence (P04049 whole entry): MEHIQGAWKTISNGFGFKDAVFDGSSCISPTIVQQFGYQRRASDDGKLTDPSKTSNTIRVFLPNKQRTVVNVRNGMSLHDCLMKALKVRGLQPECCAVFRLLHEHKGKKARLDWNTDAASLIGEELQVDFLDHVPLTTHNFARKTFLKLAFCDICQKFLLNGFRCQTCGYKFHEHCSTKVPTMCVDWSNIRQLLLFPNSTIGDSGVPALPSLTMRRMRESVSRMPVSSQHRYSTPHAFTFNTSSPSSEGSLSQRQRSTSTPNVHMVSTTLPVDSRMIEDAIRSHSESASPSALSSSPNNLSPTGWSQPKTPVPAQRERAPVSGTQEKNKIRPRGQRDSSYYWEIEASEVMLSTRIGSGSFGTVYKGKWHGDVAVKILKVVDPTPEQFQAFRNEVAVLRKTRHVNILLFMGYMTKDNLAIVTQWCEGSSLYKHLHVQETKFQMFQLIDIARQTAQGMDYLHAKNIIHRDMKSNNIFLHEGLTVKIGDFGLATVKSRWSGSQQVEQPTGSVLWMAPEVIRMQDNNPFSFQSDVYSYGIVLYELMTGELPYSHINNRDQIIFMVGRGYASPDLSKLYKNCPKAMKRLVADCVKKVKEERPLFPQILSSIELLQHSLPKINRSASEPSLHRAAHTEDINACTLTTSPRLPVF

SMILES: Cc1cc([C@@H](C)Nc2ccccc2C(=O)O)c2nc(N3CCOCC3)cc(=O)n2c1 [AZD-6482]
% of control [1]: 71%

SMILES: COc1cc(Nc2nc(C)cc(-c3cnn4nc(OC)ccc34)n2)cc(C(F)(F)F)c1
% of control [6]: 100%
% of control [7]: 100%

SMILES: Cc1cc(F)c(C(=O)Nc2cccc(-c3nncn3C(C)C)n2)cc1-n1cnc(C2CC2)c1
% of control [8]: 84%

The remaining lines, values ahead:

% of inhibition [2]: 8.97%
% of inhibition [3]: 1.7%
SMILES: CC[C@@H]1[C@H](F)C(=O)N[C@@H]1COc1nccc2cc(C(N)=O)c(OC)cc12 [ZIMLOVISERTIB]

dTagg [4]: 0 K
SMILES: Cc1cc(CN)cc(C)c1-c1ncn(C)c1-c1cncn1C

% of control ([5]; at 1 µM): 76%
% of control ([5]; at 5 µM): 41%
SMILES: C=CC(=O)Nc1cccc(C(=O)Nc2ccc(Nc3cc(-c4[nH]c(SC)nc4C)ccn3)cc2)c1
